What all share (format): biochemical
The target of test [1] is T1, puromycin-sensitive aminopeptidase (APP-S) (Homo sapiens, UniProt P55786). Briefly: chromogenic hydrolysis kinetics at […] nm with purified recombinant enzyme.
The target in test [2] is T1, puromycin-sensitive aminopeptidase (APP-S). Briefly: inhibition of purified recombinant APP-S hydrolysis of Ala-pNA/Val-pNA.
Test [3] shares this target.

Where two headings read alike, the source gives them in different places.

T1 sequence (P55786 whole entry): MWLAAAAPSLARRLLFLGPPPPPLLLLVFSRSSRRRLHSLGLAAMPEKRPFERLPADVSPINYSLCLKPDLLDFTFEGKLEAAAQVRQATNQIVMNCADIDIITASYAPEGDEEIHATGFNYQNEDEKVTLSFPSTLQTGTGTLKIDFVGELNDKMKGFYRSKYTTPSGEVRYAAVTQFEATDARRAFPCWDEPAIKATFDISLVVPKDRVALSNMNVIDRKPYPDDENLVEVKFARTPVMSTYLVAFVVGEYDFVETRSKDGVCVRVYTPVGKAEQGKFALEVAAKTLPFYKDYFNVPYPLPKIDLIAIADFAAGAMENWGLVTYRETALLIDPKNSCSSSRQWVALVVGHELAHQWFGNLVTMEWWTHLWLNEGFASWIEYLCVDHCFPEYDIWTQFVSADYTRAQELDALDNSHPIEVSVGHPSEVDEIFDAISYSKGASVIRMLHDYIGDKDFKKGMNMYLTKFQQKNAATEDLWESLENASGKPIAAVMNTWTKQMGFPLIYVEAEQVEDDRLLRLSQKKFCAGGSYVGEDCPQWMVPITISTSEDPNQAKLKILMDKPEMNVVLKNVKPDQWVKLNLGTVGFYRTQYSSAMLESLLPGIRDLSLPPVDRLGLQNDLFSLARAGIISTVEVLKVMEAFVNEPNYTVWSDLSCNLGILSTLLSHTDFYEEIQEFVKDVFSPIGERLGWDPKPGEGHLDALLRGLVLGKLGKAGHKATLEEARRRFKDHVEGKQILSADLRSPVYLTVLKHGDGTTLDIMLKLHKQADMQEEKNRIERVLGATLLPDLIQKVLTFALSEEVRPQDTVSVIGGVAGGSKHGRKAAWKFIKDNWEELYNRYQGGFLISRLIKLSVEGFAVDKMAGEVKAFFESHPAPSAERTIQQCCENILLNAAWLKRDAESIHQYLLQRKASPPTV

As a reminder, the Km is the substrate concentration at which the rate is half of its maximum. For the compound `C[C@H](N)C(=O)Nc1ccc([N+](=O)[O-])cc1` [Ala-pNA], the Km in test [1] stood at 510 ± 140 µM.

Turning to `CC(C)[C@H](N)C(=O)Nc1ccc([N+](=O)[O-])cc1` [Val-pNA], in test [1], the Km turned out to be 280 ± 190 µM.

As for `CC(C)C[C@H](NC(=O)[C@@H](O)[C@H](N)Cc1ccccc1)C(=O)O` [bestatin], the “inhibition of purified recombinant APP-S hydrolysis of Ala-pNA/Val-pNA (405 nm)” value in test [2] is “APP-S hydrolysis of the model substrates was completely inhibited by the addition of bestatin”.

Regarding `COC(=O)[C@H](CO[P@@]1(=O)COC(Cn2ccc(N)nc2=O)CO1)NC(=O)[C@@H](N)C(C)C` (stereo partly drawn) [compound 2, Methyl (S)-2-((S)-2-Amino-3-methyl-butyrylamino)-3-[(S)-5-(4-amino-2-oxo-2H-pyrimidin-1-ylmethyl)-2-oxido-1,4,2-dioxaphosphinan-2-yloxy]propanoate], in test [3], the Km came out at 850 ± 330 µM.

(Values after paper PMC2830364 (Antiviral research, 2009).)
